According to patent USRE39087E1, “Azithromycin monohydrate isopropanol clathrate and methods for the manufacture thereof” (Apotex, Inc., priority 1998, dated 2006):
Like-named read-outs stand apart in the source and are kept apart here. One block for each compound: values may come before it.

Columns and labels:
[1] = Hygroscopicity of azithromycin forms; format: physicochemical; settings: solid form
[2] = Extended vacuum drying, water (Karl-Fischer) and isopropanol (gas chromatography) content; format: physicochemical; settings: vacuum 1-10 mm Hg, 50° C. to 60° C., beyond 12-24 hours
Protocol: According to this invention, azithromycin monohydrate isopropanol clathrate contains three molecules of isopropanol for every ten molecules of azithromycin monohydrate. The process comprises the dissolution of azithromycin in isopropanol to which water is added slowly while stirring, resulting in the precipitation of crystalline azithromycin monohydrate isopropanol clathrate. The volume of solvent used is such as to be sufficient to dissolve azithromycin. The addition of the water is carried out between 0° and 30° C. and preferably between 15° C. to 25° C. The product is filtered and washed with a mixture of water-isopropanol and dried under vacuum (1-10 mm Hg) at 50° C. to 60° C. for 12-24 hours to obtain azithromycin monohydrate isopropanol clathrate in high yields. […] The water content of azithromycin monohydrate isopropanol clathrate was measured by the Karl-Fischer method and its isopropanol content was determined by gas chromatography.

[3] = solid form, known from prior patents (EP 298 650 B1, CA 1,314,876), cited from earlier work

hygroscopicity [1]: not hygroscopic
Compound: azithromycin monohydrate isopropanol clathrate
effect of extension of vacuum drying on water and isopropanol content [2]: does not reduce either the water content or the isopropanol content

Compound: CC[C@H]1OC(=O)[C@H](C)[C@@H](O[C@H]2C[C@@](C)(OC)[C@@H](O)[C@H](C)O2)[C@H](C)[C@@H](O[C@@H]2O[C@H](C)C[C@H](N(C)C)[C@H]2O)[C@](C)(O)C[C@@H](C)CN(C)[C@H](C)[C@@H](O)[C@]1(C)O [azithromycin dihydrate]
hygroscopicity ([3]; dihydrate): not hygroscopic

Compound: CC[C@H]1OC(=O)[C@H](C)[C@@H](O[C@H]2C[C@@](C)(OC)[C@@H](O)[C@H](C)O2)[C@H](C)[C@@H](O[C@@H]2O[C@H](C)C[C@H](N(C)C)[C@H]2O)[C@](C)(O)C[C@@H](C)CN(C)[C@H](C)[C@@H](O)[C@]1(C)O [Azithromycin monohydrate, azithromycin monohydrate]
hygroscopicity ([3]; monohydrate): hygroscopic
